According to ChEMBL document CHEMBL5104138, “Discovery of pyridyl urea sulfonamide inhibitors of NaV1.7” (Bioorg Med Chem Lett, 2022):
Values after ≈ are worked out from the molar mass of the structure shown.

Legend:
[1] = molecular target: T1, Sodium channel protein type 9 subunit alpha (Homo sapiens, UniProt Q15858); assay: Inhibition of human Nav1.7 at 1 uM by PatchXpress assay relative to control
Target sequence in this assay (Q15858 whole entry, looked up): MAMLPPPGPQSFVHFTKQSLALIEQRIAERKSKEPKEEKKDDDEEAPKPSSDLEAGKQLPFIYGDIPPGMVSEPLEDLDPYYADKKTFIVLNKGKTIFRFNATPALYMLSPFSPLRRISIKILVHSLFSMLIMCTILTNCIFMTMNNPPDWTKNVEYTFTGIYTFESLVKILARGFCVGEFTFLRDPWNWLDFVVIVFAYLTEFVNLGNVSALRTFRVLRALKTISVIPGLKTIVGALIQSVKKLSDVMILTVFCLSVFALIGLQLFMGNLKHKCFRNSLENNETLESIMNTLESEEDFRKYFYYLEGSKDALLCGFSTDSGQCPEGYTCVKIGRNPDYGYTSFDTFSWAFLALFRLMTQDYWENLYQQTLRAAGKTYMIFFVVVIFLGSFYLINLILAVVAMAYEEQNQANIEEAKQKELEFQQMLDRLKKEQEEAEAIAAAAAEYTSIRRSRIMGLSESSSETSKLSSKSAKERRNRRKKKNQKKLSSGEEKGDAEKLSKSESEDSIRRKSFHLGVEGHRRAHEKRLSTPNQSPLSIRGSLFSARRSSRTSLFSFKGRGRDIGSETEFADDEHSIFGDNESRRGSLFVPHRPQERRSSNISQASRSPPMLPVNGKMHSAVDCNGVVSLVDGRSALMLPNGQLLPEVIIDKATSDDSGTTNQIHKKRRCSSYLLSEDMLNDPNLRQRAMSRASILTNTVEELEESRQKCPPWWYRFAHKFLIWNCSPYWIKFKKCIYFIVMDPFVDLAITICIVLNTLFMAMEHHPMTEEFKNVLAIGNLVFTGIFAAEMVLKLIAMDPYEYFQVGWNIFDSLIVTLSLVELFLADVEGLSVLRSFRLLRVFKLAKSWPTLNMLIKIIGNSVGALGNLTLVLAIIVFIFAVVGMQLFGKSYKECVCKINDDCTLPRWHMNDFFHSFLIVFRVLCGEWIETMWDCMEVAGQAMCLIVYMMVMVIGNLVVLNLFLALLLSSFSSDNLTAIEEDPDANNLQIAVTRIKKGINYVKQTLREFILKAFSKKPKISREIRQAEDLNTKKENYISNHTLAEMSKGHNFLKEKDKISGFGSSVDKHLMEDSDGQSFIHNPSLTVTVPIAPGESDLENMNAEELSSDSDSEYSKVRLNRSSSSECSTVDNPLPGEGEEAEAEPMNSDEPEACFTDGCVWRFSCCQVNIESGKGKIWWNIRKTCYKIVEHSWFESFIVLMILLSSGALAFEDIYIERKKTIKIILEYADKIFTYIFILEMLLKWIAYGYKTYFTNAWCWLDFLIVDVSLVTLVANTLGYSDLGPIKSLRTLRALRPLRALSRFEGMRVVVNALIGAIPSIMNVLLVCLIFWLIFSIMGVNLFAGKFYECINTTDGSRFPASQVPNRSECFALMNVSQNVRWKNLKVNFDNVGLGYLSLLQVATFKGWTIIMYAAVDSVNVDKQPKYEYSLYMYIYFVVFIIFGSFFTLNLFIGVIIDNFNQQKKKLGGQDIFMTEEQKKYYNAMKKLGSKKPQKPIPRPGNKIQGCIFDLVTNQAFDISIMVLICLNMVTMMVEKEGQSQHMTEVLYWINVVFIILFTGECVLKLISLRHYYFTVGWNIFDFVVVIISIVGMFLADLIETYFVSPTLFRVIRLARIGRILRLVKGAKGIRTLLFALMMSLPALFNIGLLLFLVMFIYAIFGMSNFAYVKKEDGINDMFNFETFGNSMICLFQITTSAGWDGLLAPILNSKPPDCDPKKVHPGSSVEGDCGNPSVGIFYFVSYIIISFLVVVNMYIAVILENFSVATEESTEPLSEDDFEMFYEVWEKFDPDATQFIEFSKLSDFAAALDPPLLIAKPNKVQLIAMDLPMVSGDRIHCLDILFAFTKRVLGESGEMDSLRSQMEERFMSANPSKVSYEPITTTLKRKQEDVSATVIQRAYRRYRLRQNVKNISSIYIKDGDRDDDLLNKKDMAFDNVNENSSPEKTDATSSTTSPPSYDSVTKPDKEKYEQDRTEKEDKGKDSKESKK

[2] = Clearance in rat at 0.5 mg/kg, iv; conditions: in vivo
[3] = molecular target: T2, Cytochrome P450 3A4 (Homo sapiens, UniProt P08684); assay: Time dependent inhibition of CYP3A4 in human liver microsomes using midazolam as substrate incubated for 30 mins; assay type: ADME, Microsome
[4] = molecular target: T2, Cytochrome P450 3A4; assay: Time dependent inhibition of CYP3A4 in human liver microsomes using midazolam as substrate preincubated for 30 mins followed by substrate addition; assay type: ADME, Microsome
[5] = molecular target: T3, Cytochrome P450 2D6 (Homo sapiens, UniProt P10635); assay: Time dependent inhibition of CYP2D6 (unknown origin) preincubated for 30 mins followed by substrate addition; assay type: ADME
[6] = Lipophilicity, logD of compound at pH 7.4; assay type: physicochemical; conditions: buffer
[7] = rat, in vivo, iv, 0.5 mg/kg
Description: Unbound clearance in rat at 0.5 mg/kg, iv

[8] = molecular target: T3, Cytochrome P450 2D6; assay: Time dependent inhibition of CYP2D6 (unknown origin) incubated for 30 mins; assay type: ADME
[9] = half life in dog at 2 mg/kg, po; assay type: ADME, organism-based, Canis lupus familiaris; conditions: in vivo
[10] = Solubility of the compound at pH 7.4; assay type: physicochemical; conditions: buffer
[11] = molecular target: Sodium channel protein type 5 subunit alpha (Homo sapiens, UniProt Q14524); assay: Inhibition of human Nav1.5 at -50 mV holding potential by PatchXpress assay
[12] = AUC in mouse at 100 mg/kg, po; assay type: ADME, organism-based; parameters: dose 100 mg/kg, route po; conditions: in vivo
[13] = Clearance in dog at 0.25 mg/kg, iv; assay type: ADME, organism-based, Canis lupus familiaris; conditions: in vivo
[14] = molecular target: T4, Cytochrome P450 2C9 (Homo sapiens, UniProt P11712); assay: Inhibition of CYP2C9 (unknown origin); assay type: ADME
[15] = system: Mus musculus; assay: Antinociceptive activity in capsaicin-induced licking mouse model assessed as reduction in time spent on licking at 10 mg/kg, po relative to control; assay type: functional; parameters: scale not given: the % may be the effect or the level left
[16] = Unbound clearance in dog at 0.25 mg/kg, iv; assay type: ADME, organism-based, Canis lupus familiaris; conditions: in vivo
[17] = system: Mus musculus; assay: Antinociceptive activity in mouse model of Histamine-induced itching assessed as reduction in scratching bouts at 3 mg/kg, po relative to control; assay type: functional; parameters: scale not given: the % may be the effect or the level left
[18] = system: Mus musculus; assay: Antinociceptive activity in UV burn-induced thermal hyperalgesia mouse model assessed as reduction in latency time at 30 mg/kg, po relative to control; assay type: functional; parameters: scale not given: the % may be the effect or the level left
[19] = Half life in rat at 10 mg/kg, po; assay type: ADME, organism-based; conditions: in vivo
[20] = Oral bioavailability in dog at 2 mg/kg; assay type: ADME, organism-based, Canis lupus familiaris; conditions: in vivo
[21] = Oral bioavailability in mouse at 100 mg/kg; assay type: ADME, organism-based; conditions: in vivo
[22] = Oral bioavailability in rat at 10 mg/kg; assay type: ADME, organism-based; conditions: in vivo
[23] = Permeability in MDCK cells; assay type: ADME, cell-based, Canis lupus familiaris; conditions: dog, read-out: permeability
[24] = Clearance in mouse; assay type: ADME, organism-based; conditions: in vivo
[25] = AUC in rat at 10 mg/kg, po; assay type: ADME, organism-based; parameters: dose 10 mg/kg, route po; conditions: in vivo
[26] = AUC in dog at 2 mg/kg, po; assay type: ADME, organism-based, Canis lupus familiaris; parameters: dose 2 mg/kg, route po; conditions: in vivo
[27] = system: Mus musculus; assay: Antinociceptive activity in mouse model of Histamine-induced itching assessed as reduction in scratching bouts at 10 mg/kg, po relative to control; assay type: functional; parameters: scale not given: the % may be the effect or the level left
[28] = molecular target: T5, PXR (NR1I2) (Homo sapiens, UniProt O75469); assay: Activation of human PXR at 10 uM relative to control; assay type: toxicity; conditions: read-out: Activity
T5 sequence (O75469 whole entry): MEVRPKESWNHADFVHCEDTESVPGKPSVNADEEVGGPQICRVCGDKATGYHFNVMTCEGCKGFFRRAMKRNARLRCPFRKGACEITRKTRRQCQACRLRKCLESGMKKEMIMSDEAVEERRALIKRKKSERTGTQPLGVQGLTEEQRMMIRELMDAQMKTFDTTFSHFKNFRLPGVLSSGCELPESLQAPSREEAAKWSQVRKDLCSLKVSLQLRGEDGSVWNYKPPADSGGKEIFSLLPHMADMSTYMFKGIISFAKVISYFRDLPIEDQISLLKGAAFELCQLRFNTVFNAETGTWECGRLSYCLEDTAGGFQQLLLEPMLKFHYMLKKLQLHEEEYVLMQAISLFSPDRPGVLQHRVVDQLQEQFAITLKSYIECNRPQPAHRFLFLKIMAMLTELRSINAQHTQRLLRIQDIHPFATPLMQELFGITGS

[29] = system: Mus musculus; assay: Antinociceptive activity in mouse model of Histamine-induced itching assessed as reduction in scratching bouts at 30 mg/kg, po relative to control; assay type: functional; parameters: scale not given: the % may be the effect or the level left
[30] = Unbound clearance in mouse; assay type: ADME, organism-based; conditions: in vivo
[31] = Half life in mouse at 100 mg/kg, po; assay type: ADME, organism-based; conditions: in vivo
[32] = molecular target: T1, Sodium channel protein type 9 subunit alpha; assay: Inhibition of human Nav1.7 by PatchXpress assay
[33] = Passive permeability of compound; assay type: ADME; conditions: not told; read-out: permeability
[34] = molecular target: T4, Cytochrome P450 2C9; assay: Inhibition of CYP2C9 (unknown origin) using diclofenac as substrate; assay type: ADME
[35] = Intrinsic clearance in rat liver microsomes assessed as loss of parent compound incubated for 30 mins; assay type: ADME, Microsome; conditions: read-out: CLH
[36] = system: Mus musculus; assay: Antinociceptive activity in capsaicin-induced licking mouse model assessed as reduction in time spent on licking at 3 mg/kg, po relative to control; assay type: functional; parameters: scale not given: the % may be the effect or the level left

T2 sequence (P08684 whole entry): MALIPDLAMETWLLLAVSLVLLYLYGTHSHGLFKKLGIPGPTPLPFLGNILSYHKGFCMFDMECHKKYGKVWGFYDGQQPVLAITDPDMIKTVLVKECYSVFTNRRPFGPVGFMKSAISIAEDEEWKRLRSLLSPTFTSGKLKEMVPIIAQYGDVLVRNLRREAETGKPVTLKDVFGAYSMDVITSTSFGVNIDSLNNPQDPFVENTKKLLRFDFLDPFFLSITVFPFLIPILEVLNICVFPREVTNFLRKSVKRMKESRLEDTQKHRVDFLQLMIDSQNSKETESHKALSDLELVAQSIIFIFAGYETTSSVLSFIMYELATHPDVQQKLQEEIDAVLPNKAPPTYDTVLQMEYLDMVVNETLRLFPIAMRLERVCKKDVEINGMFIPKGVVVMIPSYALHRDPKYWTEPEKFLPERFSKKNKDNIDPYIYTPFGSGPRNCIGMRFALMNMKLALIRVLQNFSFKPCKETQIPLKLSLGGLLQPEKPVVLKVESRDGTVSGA
T3 sequence (P10635 whole entry): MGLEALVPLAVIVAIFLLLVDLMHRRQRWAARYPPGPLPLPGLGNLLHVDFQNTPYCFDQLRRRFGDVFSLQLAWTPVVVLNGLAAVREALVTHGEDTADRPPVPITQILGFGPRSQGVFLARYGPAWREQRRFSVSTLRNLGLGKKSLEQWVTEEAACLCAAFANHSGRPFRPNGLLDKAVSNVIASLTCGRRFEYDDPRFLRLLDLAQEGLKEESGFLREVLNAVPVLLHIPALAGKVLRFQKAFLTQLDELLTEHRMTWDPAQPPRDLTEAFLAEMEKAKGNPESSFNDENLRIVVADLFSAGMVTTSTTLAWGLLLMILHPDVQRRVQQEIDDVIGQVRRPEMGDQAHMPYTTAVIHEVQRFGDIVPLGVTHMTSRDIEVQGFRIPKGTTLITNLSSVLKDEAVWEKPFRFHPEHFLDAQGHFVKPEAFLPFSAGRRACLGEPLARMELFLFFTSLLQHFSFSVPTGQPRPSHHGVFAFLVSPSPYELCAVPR
T4 sequence (P11712 whole entry): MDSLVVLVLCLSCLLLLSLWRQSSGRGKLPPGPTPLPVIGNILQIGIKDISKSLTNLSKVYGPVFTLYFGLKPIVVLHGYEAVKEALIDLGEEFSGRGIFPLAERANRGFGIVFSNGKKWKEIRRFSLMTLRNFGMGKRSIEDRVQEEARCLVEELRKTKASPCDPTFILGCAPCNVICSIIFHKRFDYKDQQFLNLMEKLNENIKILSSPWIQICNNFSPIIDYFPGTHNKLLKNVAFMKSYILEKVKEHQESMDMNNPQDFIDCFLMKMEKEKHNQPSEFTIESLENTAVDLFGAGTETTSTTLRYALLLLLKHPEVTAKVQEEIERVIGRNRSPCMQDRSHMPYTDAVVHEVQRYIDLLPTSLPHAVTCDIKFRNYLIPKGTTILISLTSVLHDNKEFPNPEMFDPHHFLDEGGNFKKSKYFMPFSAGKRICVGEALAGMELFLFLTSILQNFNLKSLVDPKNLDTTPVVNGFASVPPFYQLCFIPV

## COc1cc(-c2ccc(Cl)c(C)c2)ccc1N(C(=O)NC(C)C)c1ccc(S(=O)(=O)Nc2ccon2)cn1
[1]
  inhibition: 3.9%

## CNC(=O)N(c1ccc(S(=O)(=O)Nc2cccnn2)cn1)c1cc(F)c(-c2ccc(F)c(OC(F)(F)F)c2)cc1OC
[2]
  clearance: 11.7 mL/min/kg
[3]
  IC50: > 50 µM
[4]
  IC50: > 50 µM
[5]
  IC50: 19 µM
[6]
  logD: 1.8
[7]
  CL free: 69 L/h/kg
[8]
  IC50: 30 µM

## CNC(=O)N(c1ccc(S(=O)(=O)Nc2ccon2)cn1)c1cc(Cl)c(-c2cc(F)c(F)c(F)c2)cc1OC
[2]
  clearance: 33.3 mL/min/kg
[3]
  IC50: > 50 µM
[4]
  IC50: > 50 µM
[6]
  logD: 0.7
[7]
  CL free: 286 L/h/kg

## CNC(=O)N(c1ccc(S(=O)(=O)Nc2ncccn2)cn1)c1cc(F)c(-c2ccc(F)c(OC(F)(F)F)c2)cc1OC
[9]
  half-life: 1080 min
[10]
  solubility: 260 µM (≈ 159 µg/mL)
[11]
  IC50: 40 µM
[12]
  AUC: 1150 µM·h
[13]
  clearance: 0.25 mL/min/kg
[2]
  clearance: 1.17 mL/min/kg
[3]
  IC50: > 50 µM
[14]
  IC50: 3.3 µM
[15]
  Activity: 63%
[4]
  IC50: > 50 µM
[16]
  CL free: 3.6 L/h/kg
[17]
  Activity: 55%
[18]
  Activity: 89%
[19]
  half-life: 276 min
[20]
  bioavailability: 104%
[21]
  bioavailability: 80%
[6]
  logD: 1.4
[22]
  bioavailability: 95%
[23]
  Papp: 18 ×10⁻⁶ cm/s
[24]
  clearance: 1.67 mL/min/kg
[25]
  AUC: 212 µM·h
[26]
  AUC: 200 µM·h
[27]
  Activity: 83%
[7]
  CL free: 44 L/h/kg
[28]
  activity at 10 µM: 3%
[29]
  Activity: 95%
[30]
  CL free: 11 L/h/kg
[31]
  half-life: 204 min

## COc1cc(-c2ccc(Cl)c(C#N)c2)c(F)cc1-n1c(=O)ccc2cc(S(=O)(=O)Nc3ccon3)ccc21
[2]
  clearance: 35 mL/min/kg
[32]
  IC50: 8 nM
[7]
  CL free: 607 L/h/kg

## COc1cc(-c2cccc(C(F)(F)F)c2)c(Cl)cc1N(C(N)=O)c1ccc(S(=O)(=O)Nc2ccon2)cn1
[2]
  clearance: 88.3 mL/min/kg
[32]
  IC50: 8 nM
[33]
  Papp: < 1.5 ×10⁻⁶ cm/s

## COc1ccc2cc([C@H](C)C(=O)O)ccc2c1 [NAPROXEN]
[18]
  Activity: 87%

## COc1cc(-c2ccc(Cl)c(C)c2)ccc1N(C(C)=O)c1ccc(S(=O)(=O)Nc2ccon2)cn1
[32]
  IC50: 2910 nM

## CNC(=O)N(c1ccc(S(=O)(=O)Nc2ccon2)cn1)c1ccc(-c2ccc(Cl)c(C)c2)cc1OC
[2]
  clearance: 14.7 mL/min/kg
[3]
  IC50: > 50 µM
[4]
  IC50: > 50 µM
[34]
  IC50: 3.3 µM
[32]
  IC50: 87 nM
[6]
  logD: 0.8
[35]
  microsomal CLint: 29 µL/min/mg
[7]
  CL free: 368 L/h/kg

## CNC(=O)N(c1ccc(S(=O)(=O)Nc2ncccn2)cn1)c1cc(F)c(-c2ccc(F)c(C(F)(F)F)c2)cc1OC
[2]
  clearance: 2.5 mL/min/kg
[3]
  IC50: > 50 µM
[4]
  IC50: > 50 µM
[6]
  logD: 1.2
[7]
  CL free: 49 L/h/kg

## CN1CC[C@]23c4c5ccc(O)c4O[C@H]2[C@@H](O)C=C[C@H]3[C@H]1C5 [MORPHINE]
[36]
  Activity: 98%

## CNC(=O)N(c1ccc(S(=O)(=O)Nc2ccon2)cc1)c1ccc(-c2ccc(Cl)c(C)c2)cc1OC
[2]
  clearance: 22.2 mL/min/kg
[32]
  IC50: 3800 nM
[33]
  Papp: 1.5 ×10⁻⁶ cm/s
[7]
  CL free: 180 L/h/kg

## CNC(=O)N(c1ccc(S(=O)(=O)Nc2ccon2)cn1)c1cc(Cl)c(-c2cccc(OCC(F)(F)F)c2)cc1OC
[3]
  IC50: 35 µM
[4]
  IC50: > 50 µM

## CNC(=O)N(c1ccc(S(=O)(=O)Nc2ccon2)cn1)c1cc(F)c(-c2ccc(F)c(OC(F)(F)F)c2)cc1OC
[2]
  clearance: 48.3 mL/min/kg
[3]
  IC50: > 50 µM
[4]
  IC50: > 50 µM
[7]
  CL free: 424 L/h/kg

## CNC(=O)N(c1ccc(S(=O)(=O)Nc2ncccn2)cn1)c1cc(F)c(-c2cccc(C(F)(F)F)c2)cc1OC
[2]
  clearance: 0.5 mL/min/kg
[3]
  IC50: > 50 µM
[4]
  IC50: 9 µM
[32]
  IC50: 130 nM
[6]
  logD: 1
[7]
  CL free: 16 L/h/kg

## CNC(=O)C(c1ccc(S(=O)(=O)Nc2ccon2)cn1)c1ccc(-c2ccc(Cl)c(C)c2)cc1OC (configuration not stated)
[1]
  inhibition: 4.9%

## CNC(=O)N(c1ccc(S(=O)(=O)Nc2ccon2)cn1)c1cc(Cl)c(-c2cc(OC)cc(C(F)(F)F)c2)cc1OC
[3]
  IC50: 17 µM
[4]
  IC50: > 50 µM

## CNC(=O)N(c1ccc(S(=O)(=O)Nc2ccon2)cn1)c1cc(Cl)c(-c2ccc(F)c(OCC(F)(F)F)c2)cc1OC
[2]
  clearance: 91.7 mL/min/kg
[3]
  IC50: > 50 µM
[4]
  IC50: > 50 µM
[32]
  IC50: 23 nM
[6]
  logD: 0.9

## COc1cc(-c2ccc(Cl)c(C)c2)ccc1N(C(=O)N(C)C)c1ccc(S(=O)(=O)Nc2ccon2)cn1
[32]
  IC50: > 5000 nM

## CNC(=O)N(c1ccc(S(=O)(=O)Nc2ccon2)cn1)c1cc(Cl)c(-c2cc(OC)nc(C(F)(F)F)c2)cc1OC
[3]
  IC50: > 50 µM
[4]
  IC50: > 50 µM

## CNC(=O)N(c1ccc(S(=O)(=O)Nc2ccon2)cn1)c1cc(Cl)c(-c2ccc(F)c(C(F)(F)F)c2)cc1OC
[3]
  IC50: 12 µM
[4]
  IC50: > 50 µM

## CNC(=O)N(c1ccc(S(=O)(=O)Nc2ncccn2)cn1)c1cc(Cl)c(-c2ccc(F)c(OC(F)(F)F)c2)cc1OC
[3]
  IC50: 11 µM
[4]
  IC50: > 50 µM
[6]
  logD: 1.6

## CN(C)CCOC(c1ccccc1)c1ccccc1 [DIPHENHYDRAMINE]
[29]
  Activity: 73%

## CNC(=O)N(c1ccc(S(=O)(=O)Nc2ccon2)cn1)c1cc(Cl)c(-c2cccc(C(F)(F)F)c2)cc1OC
[3]
  IC50: 5 µM
[4]
  IC50: > 50 µM
[32]
  IC50: 17 nM

## COc1cc(-c2ccc(Cl)c(C)c2)ccc1-n1c(=O)ccc2cc(S(=O)(=O)Nc3ccon3)ccc21
[2]
  clearance: 13 mL/min/kg
[3]
  IC50: 32 µM
[4]
  IC50: > 50 µM
[32]
  IC50: 5000 nM
[32]; record 2
  IC50: 10 nM
[6]
  logD: 2.5
[35]
  microsomal CLint: 28 µL/min/mg
[7]
  CL free: 132 L/h/kg
